Experimental findings from ChEMBL document CHEMBL1921691, “Synthesis and growth regulatory activity of a prototype member of a new family of aminothiol radioprotectors” (Bioorg Med Chem Lett, 2011) are described below.

Calls of active or inactive are those of the source. No cut-off for these calls is given here.

The species entered for the first experiment is Homo sapiens. The experiment in a line: Antiproliferative activity against log phase culture of human fibroblasts assessed as growth inhibition after 4 days. The class given is functional. Particulars: Fibroblast.
Turning to `CCNCCCCNC/C=C(/CS)CNCCCCNCC`, the “growth inhibition (GI)” value is “Active”.
Consider `CCNCCCCNCCCCNC/C=C(/CS)CNCCCCNCCCCNCC`, for which the “growth inhibition (GI)” value is “Active”.
`CNCC(CS)CNC`: the “growth inhibition (GI)” value was “Active”.
With `CCNCCCCNCCCCNCCCCNC/C=C(/CS)CNCCCCNCCCCNCCCCNCC`, the “growth inhibition (GI)” value was “Active”.
For the compound `CCNCCCCNCCCCNCCCCNCCCCNC/C=C(/CS)CNCCCCNCCCCNCCCCNCCCCNCC`, the “growth inhibition (GI)” value was “Active”.

For the next experiment, the system named is Rattus norvegicus. Put plainly: Protection against 17.33 Gy radiation induced-dermatitis in rat compound administered topically 4 times in 2 hrs prior irradiation measured after 13 days. Format: functional, organism-based.
Conditions: not given
For `CNCC(CS)CNC`, the result was Active.
